# Earlier results in US8073633B2 (The Invention Science Fund I, LLC, priority 2008, dated 2011).
# How the values were obtained:
# [1] = given with grapefruit juice as compared to water
# [2] = in vivo
# [3] = coadministered itraconazole relative to placebo
SMILES,percentage change in Cmax values [1],innate oral bioavailability [2],change of area under the serum concentration-time curve [AUC (0-infinity)] [3],change of peak serum concentration (Cmax) [3],other results
O=P1(N(CCCl)CCCl)NCCCO1 (stereo not drawn) [cyclophosphamide],–,–,–,–,"relative risk for ovarian failure (lupus nephritis patients homozygous or heterozygous for CYP2C19*2, pulse cyclophosphamide therapy): 0.10; probability of progressing to end stage renal disease (patients homozygous for CYP2B6*5 or CYP2C19*2 (P=0.0005)): higher probability; probability of achieving a complete renal response (patients homozygous for CYP2B6*5 or CYP2C19*2 (P=0.051)): lower probability"
CC[C@H](C)C(=O)O[C@H]1C[C@H](O)C=C2C=C[C@H](C)[C@H](CC[C@@H](O)C[C@@H](O)CC(=O)O)[C@H]21 [pravastatin],–,–,slightly increased,slightly increased,plasma half-life [3]: not altered
CCC(C)(C)C(=O)O[C@H]1C[C@@H](C)C=C2C=C[C@H](C)[C@H](CC[C@@H](O)C[C@@H](O)CC(=O)O)[C@H]21 [simvastatin acid],–,–,at least tenfold,at least tenfold,–

# More lines, main results first:
percentage change in Cmax values [1],innate oral bioavailability [2],change of area under the serum concentration-time curve [AUC (0-infinity)] [3],change of peak serum concentration (Cmax) [3],SMILES,other results
115%,very high,–,–,CCOC(=O)C1=C(COCCN)NC(C)=C(C(=O)OC)C1c1ccccc1Cl (stereo not drawn) [amlodipine],–
409%,very low,–,–,COC(=O)C1=C(C)NC(C)=C(C(=O)OCC(C)C)C1c1ccccc1[N+](=O)[O-] (stereo not drawn) [nisoldipine],–
